The test system of series [1] is H. pylori reference strain J99. Description: MIC and MBC by microdilution against H. pylori reference strain J99. The format is cell-based, Helicobacter pylori. The note with it: for MBC: (-) = MBC not determined, as bacterial growth was observed at all tested concentrations (up to 20 µM). The protocol:
To evaluate the activity of the natural products library, in vitro assays were conducted to determine the MIC and MBC against the H. pylori reference strain J99. […] The microplates were then incubated at 37 °C in microaerophilic conditions for 48 h with agitation of 140 rpm. After incubation, the optical density was read at 600 nm (BioTek Epoch2, Agilent, Winooski, VT, USA). All assays were performed in duplicate. DMSO at a concentration of 1% (v/v) was included as a negative control to assess the baseline effect of the solvent, in which bacterial growth was expected, while kanamycin (Sigma-Aldrich, St. Louis, MO, USA) at a concentration of 8 µg/mL was used as a positive control to provide a benchmark for effective antibacterial activity. MIC values were defined as the lowest concentration of a compound that inhibited the growth of H. pylori. MBC values were determined by plating 5 µL aliquots of each dilution onto H. pylori-selective medium, followed by incubation as described above. MBC was defined as the lowest concentration of a compound that rendered no visible colony formation on the solid medium, indicating bactericidal activity.

The nature of series [2]: MTT cytotoxicity assay on VERO cells. The format is cell-based. The settings on record: African green monkey, MTT, 80 to 10 µM. As to the method: (§1) The cytotoxicity of the compounds showing antibacterial activity was evaluated in VERO cell cultures (FTVE, Vircell, S.L., Granada, Spain) using the standard MTT colorimetric assay. Briefly, sub confluent cell cultures were exposed for 48 h, to 2-fold dilutions of each assayed compound, ranging from 80 to 10 µM, in 100 μL CO2-independent medium supplemented with 5% FBS and […] gentamicin (Gibco^TM, Grand Island, NY, USA) (CO2-ind-FBS5). In each assay, cells exposed to equivalent concentrations of DMSO as solvent and untreated cells were kept as controls; untreated cells were considered the baseline for 100% viability.
(§2) After 48-h incubation at 37 °C, the culture medium was replaced by fresh CO2-ind-FBS5 medium supplemented with 0.5 mg/mL MTT (Thermo Fisher Scientific, Waltham, MA, USA). Upon a 3-h incubation at 37 °C, the medium was carefully discarded, and the purple formazan crystals formed were dissolved in DMSO (100 μL/well) during a 15-min incubation with agitation at room temperature, followed by absorbance reading at 570 nm, with reference wavelength at 630 nm (BioTek Epoch2, Agilent, Winooski, VT, USA). Data analysis and visualization were performed using Excel (v.2408) and RStudio (v. 2024.04.2). When possible, the half maximal cytotoxic concentration (CC50) values were determined for each compound by fitting a dose–response three- or four-parameter log-logistic function to the triplicate experimental points using RStudio (v.2024.04.2).
(§3) The selectivity index (SI) is the ratio of the cytotoxic concentration for 50% of the cells (CC50) to the inhibitory concentration for 50% of the bacteria (IC50). Considering that IC50 values were not calculated, but are expectably lower than the MIC value, the SI was estimated by dividing the CC50 by the MIC. Therefore, this value is necessarily lower than the SI because the MIC, rather than the bacterial half-maximal inhibitory concentration (IC50), was used in the calculation. This approach allows for an estimation of the therapeutic potential of the compound by providing an indication of its selectivity for targeting bacterial cells over host cells, even though the MIC is used instead of the bacterial IC50.
(§4) To compare biofilm formation between groups (negative control, H. pylori J99, and compound treatments), one-way analysis of variance (ANOVA) was performed, followed by Tukey’s post-hoc test for multiple comparisons. Data analysis was conducted using Python 3.13.5. Similarly, for the cytotoxicity assay in VERO cells, ANOVA and Tukey’s post-hoc test were also used to compare groups at each tested concentration (ranging from 80 to 10 µM), with DMSO-treated and untreated cells as reference groups.

The subject of the next series is VERO cells. Description: MTT cytotoxicity assay on VERO cells. The note with it: 48 h, 10 to 80 µM, versus DMSO and untreated controls. It is filed as cell-based. As to the method: as §1, §2, §3, §4
The mark [3] stands for this setting: Helicobacter pylori, H. pylori J99, 48 h, 2-fold dilutions 20 to 0.625 µM.
The mark [4] stands for this setting: Helicobacter pylori, H. pylori J99, read-out: MBC.
Where [5] appears, read: Helicobacter pylori, H. pylori J99, after conversion from µM to µg/mL.

SMILES strings stand for the structures. In brackets after ≈: the same amount, converted by molar mass. Entries after “also recorded” stand apart in the source; their conditions may differ. Read-outs that look alike come from different tables or passages of the source.

For the compound `CCC1CN(C)C2Cc3c([nH]c4ccccc34)C(=NN=Cc3c[nH]c4cc(Br)ccc34)CC1C2C(=O)OC` (centres unmarked) [Compound 6, Dregamine(6′bromo-3′indolylmethylene)hydrazone], the minimal inhibitory concentration (MIC) in series [1] (setting [3]) stood at 10 µM; in series [1] (setting [5]), 5.75 µg/mL. Further, in series [1] (setting [4]), the MBC was determined as 20 µM (≈ 11.5 µg/mL). Besides, the CC50 at 48 h in series [2] was greater than 80 µM. In addition, the “Effect on cell viability (MTT)” value in the series on VERO cells is listed as “only a slight decrease in cell viability; also recorded: did not induce significant cytotoxicity at any tested concentration”.
Consider `CCC1CN(C)C2Cc3c([nH]c4ccccc34)C(c3c(OC)ccc4c5c([nH]c34)C3(C(=O)OC)CC4CC(CC)C3N(CC5)C4CC(C)=O)CC1C2C(=O)OC` (centres unmarked) [Compound 7, Tabernaelegantinine A], for which the figures for the MIC in series [1] (setting [3]) and in series [1] (setting [5]) were 20 µM and 15.2 µg/mL, respectively. The same compound came in with a CC50 at 48 h in series [2] greater than 80 µM. Moreover, the “Effect on cell viability (MTT)” value in the series with VERO cells is “only a slight decrease in cell viability; also recorded: significant effects only at 80 µM”.
Regarding `CCC1CN(C)C2Cc3c([nH]c4ccccc34)C(=NN=Cc3ccccc3O)CC1C2C(=O)OC` (centres unmarked) [Compound 5, Dregamine(2′-hydroxybenzylidene)hydrazone], the MIC was found to be 20 µM in series [1] (setting [3]) and 9.45 µg/mL in series [1] (setting [5]). The compound also yielded a CC50 at 48 h in series [2] of 55.8 ± 4.5 µM.
On the same counts, the results for `CCC1CN(C)C2Cc3c([nH]c4ccccc34)C(=NN=Cc3c[nH]c4ccccc34)CC1C2C(=O)OC` (centres unmarked) [Compound 4, Dregamine(indolylmethylene)hydrazone] are 10 µM, 4.96 µg/mL and 47 ± 2.2 µM.
In the case of `CCC1CN(C)C2Cc3c([nH]c4ccccc34)C(=NN=CC=Cc3ccccc3)CC1C2C(=O)OC` (centres unmarked) [Compound 3, Dregamine(phenylallylidene)hydrazone], the MBC in series [1] (H. pylori J99) is 20 (20) µM; in series [1] (setting [4]), 20 µM (≈ 9.65 µg/mL). The figures for the minimum inhibitory concentration (MIC) in series [1] (setting [3]) and in series [1] (setting [5]) were 20 µM and 9.65 µg/mL, respectively. In series [2], the midpoint of cytotoxicity, the CC50 at 48 h, lay at 44.1 ± 2.4 µM.

(Values after publication PMC12386351, “Monoterpene Indole Alkaloids with Antimicrobial Activity Against Helicobacter pylori” (International Journal of Molecular Sciences, 2025).)
